The assay is described as follows: Test for liquid permeation through dentinal tubules (Pashley's protocol, split chamber device). Also on record: species or system human. The conditions noted are these: component blended singly.

Procedure: A healthy human evulsion tooth was used to cut the tooth into sections in such a manner that dentin and dentinal tubules were exposed. The resulting sections were polished at a thickness of about 500 μm and were subjected to ultrasonic cleaning. […] The resulting solution was used as a test solution. Then, the sections whose portions other than the test surface had been masked were soaked in the test solution at 37° C. for 9 min per day. This soaking treatment was conducted for 5 days.
In addition, a test for liquid permeation through dentinal tubules was conducted. […] A dentin section was interposed between an inlet chamber and an outlet chamber of the above device. Then, the test solution was placed in the inlet chamber to treat the dentin surface. In addition, a Ringer's solution was injected using pressure in the inlet chamber before and after the treatment. By measuring the amount of flow through the outlet chamber, the liquid permeation through dentinal tubules was evaluated.
The effect of inhibiting liquid permeation through dentinal tubules of each test solution was determined as follows: first, a difference between the amount of flow of the Ringer's solution before and that after the treatment was determined; and a liquid permeation inhibition rate of the dentinal tubules was then calculated in percent units by using the following equation. […]

Consider `O.O.O=P([O-])([O-])O.[Ca+2]` [calcium monohydrogen phosphate dihydrate], for which the “ability to occlude dentinal tubules of a tooth” value was “had an ability to occlude dentinal tubules of a tooth”.

The values are drawn from patent US9468593B2, “Oral composition” (KABUSHIKI KAISHA SANGI, priority 2012, dated 2016).
